Laboratory results from US12077503B2, “Substituted cyclic amides and their use as herbicides” (FMC CORPORATION, priority 2015, dated 2024).

Assays:
Assay type in all cases: in vivo
[1] = tested on: ducksalad (Heteranthera limosa); test: Test B flooded paddy test; conditions: Flood, 250 g ai/ha; 0 to 100 scale where 0 is no effect and 100 is complete control; 13 to 15 d
Procedure: (§1) Plant species in the flooded paddy test selected from rice (Oryra sativa), sedge, umbrella (small-flower umbrella sedge, Cyperus difformis), ducksalad (Heteranthera limosa), and barnyardgrass (Echinochloa crus-galli) were grown to the 2-leaf stage for testing. At time of treatment, test pots were flooded to 3 cm above the soil surface, treated by application of test compounds directly to the paddy water, and then maintained at that water depth for the duration of the test. Treated plants and controls were maintained in a greenhouse for 13 to 15 d, after which time all species were compared to controls and visually evaluated. Plant response ratings, summarized in Table B, are based on a scale of 0 to 100 where 0 is no effect and 100 is complete control. A dash (-) response means no test result.

[2] = tested on: barnyardgrass (Echinochloa crus-galli); test: Test B flooded paddy test; conditions: Flood, 250 g ai/ha; 0 to 100 scale where 0 is no effect and 100 is complete control; 13 to 15 d
Procedure: as §1

[3] = tested on: sedge, umbrella (small-flower umbrella sedge, Cyperus difformis); test: Test B flooded paddy test; conditions: Flood, 250 g ai/ha; 0 to 100 scale where 0 is no effect and 100 is complete control; 13 to 15 d
Procedure: as §1

[4] = tested on: rice (Oryra sativa); test: Test B flooded paddy test; conditions: Flood, 250 g ai/ha; 0 to 100 scale where 0 is no effect and 100 is complete control; 13 to 15 d
Procedure: as §1

[5] = tested on: wheat (Triticum aestivum); test: Test A postemergence
Excerpt: (§2) Seeds of plant species selected from barnyardgrass (Echinochloa crus-galli), Kochia (Kochia scoparia), ragweed (common ragweed, Ambrosia elatior), ryegrass, Italian (Italian ryegrass, Lolium multiflorum), crabgrass, large (Digitaria sanguinalis), giant foxtail (Setaria faberii), green foxtail (Setaria viridis), morningglory (Ipomoea spp.), pigweed (Amaranthus retroflexus), velvetleaf (Abutilon theophrasti), wheat (Triticum aestivum), and corn (Zea mays) were planted into a blend of loam soil and sand and treated preemergence with a directed soil spray using test chemicals formulated in anon-phytotoxic solvent mixture which included a surfactant.
(§3) At the same time, plants selected from these crop and weed species and also blackgrass (Alopecurus myosuroides), and Galium (catchweed bedstraw, Galium aparine) were planted in pots containing the same blend of loam soil and sand and treated with postemergence applications of test chemicals formulated in the same manner. Plants ranged in height from 2 to 10 cm and were in the one- to two-leaf stage for the postemergence treatment. Treated plants and untreated controls were maintained in a greenhouse for approximately 10 d, after which time all treated plants were compared to untreated controls and visually evaluated for injury. Plant response ratings, summarized in Table A, are based on a 0 to 100 scale where 0 is no effect and 100 is complete control. A dash (-) response means no test result.

[6] = tested on: ragweed (common ragweed, Ambrosia elatior); test: Test A postemergence
Excerpt: as §2, §3

[7] = tested on: barnyardgrass (Echinochloa crus-galli); test: Test A postemergence
Excerpt: as §2, §3

[8] = tested on: corn (Zea mays); test: Test A postemergence
Excerpt: as §2, §3

[9] = tested on: Galium (catchweed bedstraw, Galium aparine); test: Test A postemergence
Excerpt: as §2, §3

[10] = tested on: blackgrass (Alopecurus myosuroides); test: Test A postemergence
Excerpt: as §2, §3

[11] = tested on: pigweed (Amaranthus retroflexus); test: Test A postemergence
Excerpt: as §2, §3

[12] = tested on: giant foxtail (Setaria faberii); test: Test A postemergence
Excerpt: as §2, §3

[13] = tested on: ryegrass, Italian (Italian ryegrass, Lolium multiflorum); test: Test A postemergence
Excerpt: as §2, §3

[14] = tested on: Kochia (Kochia scoparia); test: Test A postemergence
Excerpt: as §2, §3

[15] = tested on: ragweed (common ragweed, Ambrosia elatior); test: Test A preemergence; conditions: for Plant response rating, Ragweed: 125 g ai/ha, preemergence, 0 to 100 scale (0 no effect, 100 complete control); for Ragweed plant response rating (0 to 100 scale): Preemergence, 500 g ai/ha, 0 is no effect, 100 is complete control
Excerpt: as §2, §3

[16] = tested on: barnyardgrass (Echinochloa crus-galli); test: Test A preemergence; conditions: for Plant response rating, Barnyardgrass: 125 g ai/ha, preemergence, 0 to 100 scale (0 no effect, 100 complete control); for Barnyardgrass plant response rating (0 to 100 scale): Preemergence, 500 g ai/ha, 0 is no effect, 100 is complete control
Excerpt: as §2, §3

[17] = tested on: pigweed (Amaranthus retroflexus); test: Test A preemergence; conditions: for Plant response rating, Pigweed: 125 g ai/ha, preemergence, 0 to 100 scale (0 no effect, 100 complete control); for Pigweed plant response rating (0 to 100 scale): Preemergence, 500 g ai/ha, 0 is no effect, 100 is complete control
Excerpt: as §2, §3

[18] = tested on: giant foxtail (Setaria faberii); test: Test A preemergence; conditions: for Plant response rating, Foxtail, Giant: 125 g ai/ha, preemergence, 0 to 100 scale (0 no effect, 100 complete control); for Foxtail, Giant plant response rating (0 to 100 scale): Preemergence, 500 g ai/ha, 0 is no effect, 100 is complete control
Excerpt: as §2, §3

[19] = tested on: ryegrass, Italian (Italian ryegrass, Lolium multiflorum); test: Test A preemergence; conditions: for Plant response rating, Ryegrass, Italian: 125 g ai/ha, preemergence, 0 to 100 scale (0 no effect, 100 complete control); for Ryegrass, Italian plant response rating (0 to 100 scale): Preemergence, 500 g ai/ha, 0 is no effect, 100 is complete control
Excerpt: as §2, §3

[20] = tested on: Kochia (Kochia scoparia); test: Test A preemergence; conditions: for Plant response rating, Kochia: 125 g ai/ha, preemergence, 0 to 100 scale (0 no effect, 100 complete control); for Kochia plant response rating (0 to 100 scale): Preemergence, 500 g ai/ha, 0 is no effect, 100 is complete control
Excerpt: as §2, §3

[21] = 500 g ai/ha, postemergence, 0 to 100 scale, 0 no effect, 100 complete control
[22] = Postemergence, 125 g ai/ha, visual injury, 0 to 100 scale (0 no effect, 100 complete control), approx. 10 d

SMILES	Plant response rating, Ducksalad [1]	Plant response rating, Barnyardgrass [2]	Plant response rating, Sedge, Umbrella [3]	Plant response rating, Rice [4]	Plant response rating, Wheat [5, 21]	Plant response rating, Wheat [5, 22]	Plant response rating, Ragweed [6, 21]	Plant response rating, Ragweed [6, 22]	Plant response rating, Barnyardgrass [7, 21]	Plant response rating, Barnyardgrass [7, 22]	Plant response rating, Corn [8, 21]	Plant response rating, Corn [8, 22]	Plant response rating, Galium [9, 21]	Plant response rating, Galium [9, 22]	Plant response rating, Blackgrass [10, 21]	Plant response rating, Blackgrass [10, 22]	Plant response rating, Pigweed [11, 21]	Plant response rating, Pigweed [11, 22]	Plant response rating, Foxtail, Giant [12, 21]	Plant response rating, Foxtail, Giant [12, 22]	further results
Cc1cccc(C2CNC(=O)C2C(=O)Nc2ccccc2F)c1 (racemic) [Compound 372]	100	60	0	35	20	0	0	0	80	80	20	0	20	0	30	20	30	20	70	50	Plant response rating, Ryegrass, Italian [13, 21]: 40; Plant response rating, Ryegrass, Italian [13, 22]: 20; Plant response rating, Kochia [14, 21]: 40; Plant response rating, Kochia [14, 22]: 0; Plant response rating, Ragweed [15]: 0; Ragweed plant response rating (0 to 100 scale) [15]: 30; Plant response rating, Barnyardgrass [16]: 90; Barnyardgrass plant response rating (0 to 100 scale) [16]: 90; Plant response rating, Pigweed [17]: 0; Pigweed plant response rating (0 to 100 scale) [17]: 50; Plant response rating, Foxtail, Giant [18]: 80; Foxtail, Giant plant response rating (0 to 100 scale) [18]: 90; Plant response rating, Ryegrass, Italian [19]: 0; Ryegrass, Italian plant response rating (0 to 100 scale) [19]: 30; Plant response rating, Kochia [20]: 0; Kochia plant response rating (0 to 100 scale) [20]: 0
Cc1cccc(C2CNC(=O)C2C(=O)Nc2ccccc2C(F)(F)F)c1 (racemic) [Compound 374]	95	60	0	30	40	0	0	0	90	80	20	0	40	0	50	0	0	0	50	20	Plant response rating, Ryegrass, Italian [13, 21]: 0; Plant response rating, Ryegrass, Italian [13, 22]: 0; Plant response rating, Kochia [14, 21]: 0; Plant response rating, Kochia [14, 22]: 0; Plant response rating, Ragweed [15]: 0; Ragweed plant response rating (0 to 100 scale) [15]: 0; Plant response rating, Barnyardgrass [16]: 90; Barnyardgrass plant response rating (0 to 100 scale) [16]: 90; Plant response rating, Pigweed [17]: 0; Pigweed plant response rating (0 to 100 scale) [17]: 0; Plant response rating, Foxtail, Giant [18]: 90; Foxtail, Giant plant response rating (0 to 100 scale) [18]: 90; Plant response rating, Ryegrass, Italian [19]: 0; Ryegrass, Italian plant response rating (0 to 100 scale) [19]: 30; Plant response rating, Kochia [20]: 0; Kochia plant response rating (0 to 100 scale) [20]: 0
O=C1NCC(c2cccc(F)c2)C1C(=O)Nc1cccc(F)c1F (racemic) [Compound 375]	100	70	0	30	80	30	20	0	90	90	80	30	50	40	70	50	50	20	90	90	Plant response rating, Ryegrass, Italian [13, 21]: 20; Plant response rating, Ryegrass, Italian [13, 22]: 0; Plant response rating, Kochia [14, 21]: 60; Plant response rating, Kochia [14, 22]: 30; Plant response rating, Ragweed [15]: 0; Ragweed plant response rating (0 to 100 scale) [15]: 70; Plant response rating, Barnyardgrass [16]: 90; Barnyardgrass plant response rating (0 to 100 scale) [16]: 90; Plant response rating, Pigweed [17]: 20; Pigweed plant response rating (0 to 100 scale) [17]: 70; Plant response rating, Foxtail, Giant [18]: 90; Foxtail, Giant plant response rating (0 to 100 scale) [18]: 90; Plant response rating, Ryegrass, Italian [19]: 20; Ryegrass, Italian plant response rating (0 to 100 scale) [19]: 50; Plant response rating, Kochia [20]: 20; Kochia plant response rating (0 to 100 scale) [20]: 70
